Reference: US9661847B2, “Antimicrobial preservative compositions for personal care products” (Galaxy Surfactants Ltd., priority 2011, dated 2017)
Like-named read-outs stand apart in the source and are kept apart here.

Columns and labels:
[1] = 0.1% aqueous solution at 25° C., from 72 dynes/cm; cited from earlier work
[2] = Reduction of surface tension of water; assay type: physicochemical
[3] = test system: Gram positive, Gram negative bacteria, yeast and mould; experiment: Minimum inhibitory concentration, whole panel of microbes; assay type: cell-based; details: for Antimicrobial activity, in words: up to 1.0% concentration
[4] = test system: Propionibacterium acnes MTCC 1951; experiment: Minimum inhibitory concentration; assay type: cell-based; details: P. acnes
[5] = test system: Candida albicans ATCC 10231; experiment: Minimum inhibitory concentration; assay type: cell-based; details: for Concentration of individual component at the MIC of the blend: C. albicans
[6] = test system: Bacillus subtilis ATCC 9372; experiment: Minimum inhibitory concentration; assay type: cell-based; details: B. subtilis
[7] = test system: Staphylococcus aureus ATCC 6538S; experiment: Minimum inhibitory concentration; assay type: cell-based
[8] = test system: Escherichia coli ATCC 10142; experiment: Minimum inhibitory concentration; assay type: cell-based; details: E. coli
[9] = test system: Malassezia furfur MTCC 1374; experiment: Minimum inhibitory concentration; assay type: cell-based; details: M. furfur
[10] = test system: Aspergillus niger ATCC 16404; experiment: Minimum inhibitory concentration; assay type: cell-based; details: for Concentration of individual component at the MIC of the blend: A. niger
[11] = test system: Pseudomonas aeruginosa Immuno type IV; experiment: Minimum inhibitory concentration; assay type: cell-based; details: P. aeruginosa

For CCCCC(CC)COCC(O)CO (stereo not shown) [2-ethyl hexyl glyceryl ether, 3-(2-ethylhexyl)oxy 1,2-propanediol], the “Surface tension of water reduced to” value [1] is listed as 32 dynes/cm.

With CCCCCCCC(=O)NCCO [Octanoyl MEA amide, N-(2-hydroxylethyl)caprylic acid amide] the “Surface tension of water reduced to” value ([2]; 0.05% level) was 38 dynes/cm, the “Surface tension of water” value ([2]; 0.05% solution) was 38.5 dyne/cm and the “Surface tension of water reduced to” value ([2]; 0.1% concentration) was 30 dynes/cm. The “Surface tension of water” value ([2]; 0.1% solution) was 30.5 dyne/cm and the “Antimicrobial activity, in words” value [3] was “did not exhibit any antibacterial activity”.

For C=CCCCCCCCCC(=O)NCCO [Undecylenoyl MEA amide, N-undecylenoyl monoethanol amide], the “Concentration of individual component at the MIC of the blend” value (from here on “Concentration of individual component”) ([4]; within Preservative Blend No 1) was 300 ppm, the “Concentration of individual component” value ([4]; within Preservative Blend No 2) was 200 ppm and the “Concentration of individual component” value ([5]; within Preservative Blend No 1) was 300 ppm. The “Concentration of individual component” value ([5]; within Preservative Blend No 2) was 200 ppm, the “Concentration of individual component” value ([6]; within Preservative Blend No 1) was 200 ppm and the “Concentration of individual component” value ([6]; within Preservative Blend No 2) was 200 ppm. For the same compound, the “Concentration of individual component” value ([7]; within Preservative Blend No 1) was 200 ppm, the “Concentration of individual component” value ([7]; within Preservative Blend No 2) was 300 ppm and the “Concentration of individual component” value ([8]; within Preservative Blend No 1) was 200 ppm. The “Concentration of individual component” value ([8]; within Preservative Blend No 2) was 300 ppm, the “Concentration needed for antimicrobial activity of the ingredient by itself (range over microbes)” value ([3]; ingredient alone, octanoyl glycine tested at neutral pH) was > 10000 ppm and the “Antimicrobial activity, in words” value [3] was “does not exhibit any antimicrobial activity”. For the same compound, the “Concentration of individual component” value ([9]; within Preservative Blend No 1) was 400 ppm, the “Concentration of individual component” value ([9]; within Preservative Blend No 2) was 400 ppm and the “Concentration of individual component” value ([10]; within Preservative Blend No 1) was 300 ppm. For the same compound, the “Concentration of individual component” value ([10]; within Preservative Blend No 2) was 200 ppm, the “Concentration of individual component” value ([11]; within Preservative Blend No 1) was 200 ppm and the “Concentration of individual component” value ([11]; within Preservative Blend No 2) was 300 ppm.

For OCCOc1ccccc1 [Phenoxy ethanol, 2-Phenoxy ethanol], the “Concentration of phenoxy ethanol in combination enough to kill the organism” value ([5]; in combination with [A] and [B] of Preservative Blend No 1, Candida) was “around 0.25%”, the “Concentration of individual component” value ([6]; within Preservative Blend No 2) was 1600 ppm and the “Concentration of individual component” value ([9]; within Preservative Blend No 2) was 3200 ppm. The “Concentration of phenoxy ethanol in combination enough to kill the organism” value ([10]; in combination with [A] and [B] of Preservative Blend No 1, Aspergillus) was “around 0.25%”.
